This is an account of results in patent US20030166301A1, “Multiple binding moiety chromatography device, methods of using and methods of making same” (priority 2001, published 2003).

One data set concerns the target Nicotinic Receptor. The settings on record: read-out: Kd Standard, cited from earlier work.
Another data set concerns the target NCT receptor (Rattus norvegicus, UniProt P09483+P12390). It is filed as binding.
The test system of data set [1] is GABAA receptor. Kind of data set: Frontal chromatography on MR-SP, marker (3H)-FTZ. It is filed as binding, rat.
Protocol: (§1) Solubilization of rat brain tissue: All of the tissue from four rat brains was homogenized in 30 ml of Tris-HCl buffer (50 mM, pH 7.4) containing 5 mM EDTA, 3 mM benzamidine and 0.2 mM PMSF for 3×20 seconds using a Polytron homogenizer (Brinkman Instruments, Westbury, N.Y., USA) at setting 6. The mixture was kept in an ice bath for 20 seconds between each homogenization step to prevent excessive heating of the tissue. The homogenized brain tissue was centrifuged for 10 minutes at 4° C. at 35,000×g, and the supernatant was discarded. The pellet was suspended in 10 ml of Tris-HCl buffer (50 mM, pH 7.4) containing 100 mM NaCl, 2 mM MgCl2, 3 mM CaCl2, 5 mM KCl, 2% sodium cholate, and 10 μg/ml leupeptin. The resulting mixture was stirred for 12 hours at 4° C. and centrifuged at 35,000×g.
(§2) Immobilization of solubilized receptors: The supernatant (receptor-cholate suspension) was mixed with 200 mg of dried IAM-PC packing material and stirred gently for 1 hour at 25° C., transferred into dialysis tubing, and dialyzed for 48 hours at 4° C. against 3×600 ml of Tris-HCl buffer (50 mM, pH 7.4) containing 5 mM EDTA, 100 mM NaCl, 0.1 mM CaCl2 and 0.1 mM PMSF. […]
(§3) The value of Vmin can be determined by running (^3H)-EB in a series of concentration of drugs and plotting 1/(Vmax−V) versus 1/(drug) extrapolating to infinite (drug). […]
A further data set concerns the target PGP (Homo sapiens, UniProt P08183). Kind of data set: Frontal chromatography on open tubular PGP column (PGP-OTB).
For data set [2], the target named is GABAA receptor. The conditions noted are these: rat brain membranes; read-out: Kd Standard; cited from earlier work.

The structures appear in SMILES notation. Several values for one entry are separate records, joined by “and”; a condition that tells them apart may be missing. Equal values may be shown once. Read-outs that look alike come from different tables or passages of the source.

Sequence of PGP (P08183 whole entry): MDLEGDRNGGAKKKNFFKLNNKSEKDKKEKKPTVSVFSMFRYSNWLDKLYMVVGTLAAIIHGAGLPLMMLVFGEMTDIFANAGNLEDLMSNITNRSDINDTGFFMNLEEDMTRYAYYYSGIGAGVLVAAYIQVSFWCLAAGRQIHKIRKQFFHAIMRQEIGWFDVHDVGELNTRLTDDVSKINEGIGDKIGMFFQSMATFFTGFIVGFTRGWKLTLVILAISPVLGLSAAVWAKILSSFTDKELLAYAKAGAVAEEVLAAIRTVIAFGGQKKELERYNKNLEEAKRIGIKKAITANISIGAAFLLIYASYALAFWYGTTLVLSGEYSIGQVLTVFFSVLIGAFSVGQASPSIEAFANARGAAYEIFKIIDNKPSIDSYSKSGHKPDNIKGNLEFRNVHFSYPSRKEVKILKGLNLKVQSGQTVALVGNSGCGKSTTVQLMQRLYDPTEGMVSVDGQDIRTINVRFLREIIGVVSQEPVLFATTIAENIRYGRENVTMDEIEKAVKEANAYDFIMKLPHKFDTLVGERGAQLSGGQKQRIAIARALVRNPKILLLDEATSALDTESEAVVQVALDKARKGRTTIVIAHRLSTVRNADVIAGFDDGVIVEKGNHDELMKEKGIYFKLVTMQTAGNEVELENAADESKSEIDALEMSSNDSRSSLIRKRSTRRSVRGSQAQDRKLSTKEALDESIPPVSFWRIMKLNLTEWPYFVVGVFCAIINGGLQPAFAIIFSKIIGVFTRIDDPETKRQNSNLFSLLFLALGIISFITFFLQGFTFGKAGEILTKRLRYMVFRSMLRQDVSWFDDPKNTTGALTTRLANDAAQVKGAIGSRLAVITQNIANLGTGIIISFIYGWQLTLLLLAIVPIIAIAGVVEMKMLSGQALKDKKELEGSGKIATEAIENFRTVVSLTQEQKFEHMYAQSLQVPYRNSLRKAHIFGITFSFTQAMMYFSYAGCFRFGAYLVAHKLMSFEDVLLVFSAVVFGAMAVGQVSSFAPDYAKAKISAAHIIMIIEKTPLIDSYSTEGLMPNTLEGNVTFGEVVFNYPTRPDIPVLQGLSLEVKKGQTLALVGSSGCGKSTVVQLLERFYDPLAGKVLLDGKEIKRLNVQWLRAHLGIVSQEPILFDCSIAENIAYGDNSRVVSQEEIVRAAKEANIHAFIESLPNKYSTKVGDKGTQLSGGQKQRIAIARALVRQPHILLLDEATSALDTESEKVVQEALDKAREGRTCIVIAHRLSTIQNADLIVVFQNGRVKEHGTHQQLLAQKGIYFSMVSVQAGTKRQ
Sequence of NCT receptor (P12390 25-500): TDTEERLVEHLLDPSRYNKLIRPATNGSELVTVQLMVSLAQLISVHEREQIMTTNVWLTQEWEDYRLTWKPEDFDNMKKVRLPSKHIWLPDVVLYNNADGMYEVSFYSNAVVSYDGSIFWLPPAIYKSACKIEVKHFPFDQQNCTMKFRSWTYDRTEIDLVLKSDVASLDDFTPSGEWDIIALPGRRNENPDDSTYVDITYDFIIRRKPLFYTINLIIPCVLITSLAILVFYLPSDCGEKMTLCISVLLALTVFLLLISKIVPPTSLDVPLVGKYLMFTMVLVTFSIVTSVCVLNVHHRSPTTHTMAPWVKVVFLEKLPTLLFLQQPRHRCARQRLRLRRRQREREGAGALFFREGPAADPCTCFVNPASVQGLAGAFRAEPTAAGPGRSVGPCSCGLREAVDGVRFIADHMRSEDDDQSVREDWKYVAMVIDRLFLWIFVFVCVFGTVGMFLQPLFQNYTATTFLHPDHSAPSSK
Sequence of NCT receptor (P09483 31-630): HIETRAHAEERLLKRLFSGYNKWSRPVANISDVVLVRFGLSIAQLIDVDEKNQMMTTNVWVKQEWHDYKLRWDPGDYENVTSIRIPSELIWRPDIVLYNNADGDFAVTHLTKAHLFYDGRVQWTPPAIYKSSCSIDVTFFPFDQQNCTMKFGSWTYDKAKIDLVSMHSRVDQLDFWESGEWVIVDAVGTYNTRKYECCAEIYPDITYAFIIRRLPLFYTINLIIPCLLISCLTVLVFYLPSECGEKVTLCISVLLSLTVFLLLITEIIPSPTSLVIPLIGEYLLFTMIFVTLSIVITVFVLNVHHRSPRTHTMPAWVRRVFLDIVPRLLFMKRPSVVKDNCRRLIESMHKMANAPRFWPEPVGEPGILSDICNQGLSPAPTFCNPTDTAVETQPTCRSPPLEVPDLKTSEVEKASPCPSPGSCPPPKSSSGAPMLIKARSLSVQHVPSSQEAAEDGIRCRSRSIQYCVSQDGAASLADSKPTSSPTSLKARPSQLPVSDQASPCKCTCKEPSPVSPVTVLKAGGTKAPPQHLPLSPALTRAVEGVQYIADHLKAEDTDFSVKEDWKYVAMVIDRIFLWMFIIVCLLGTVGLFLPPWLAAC
Protocol for NCT receptor: as §1, §2, §3
Protocol for NMDA receptor: as §1
Immobilization of solubilized receptors: The supernatant (receptor-cholate suspension) was mixed with 200 mg of dried IAM-PC packing material and stirred gently for 1 hour at 25° C., transferred into dialysis tubing, and dialyzed for 48 hours at 4° C. against 3×600 ml of Tris-HCl buffer (50 mM, pH 7.4) containing 5 mM EDTA, 100 mM NaCl, 0.1 mM CaCl2 and 0.1 mM PMSF.
The resulting mixture was centrifuged for 3 minutes at 4° C. at 32,000×g, and the supernatant was discarded. The pellet (MR-SP) was washed with Tris-HCl buffer (50 mM, pH 7.4) and centrifuged. This process was repeated until the supernatant was clear. The MR-SP was then collected.
Chromatographic procedures: The MR-SP (200 mg) was packed into a HR 5/2 glass column (Amersham Pharmacia Biotech, Uppsala, Sweden) to yield a 150 mm×5 mm (ID) chromatographic bed. The column was then connected to a P 1000 isocratic HPLC pump (Thermo Separations, San Jose, Calif., USA). The mobile phase consisted of Tris-HCl buffer (50 mM, pH 7.4) delivered at a flow rate 0.4 ml/min at room temperature.
In the chromatographic studies, a 50 ml sample Superloop (Amersham Pharmacia Biotech) was used to apply a series of (^3H)-marker ligand concentrations through the MR-SP column to obtain elution profiles showing front and plateau regions. […]
Protocol for PGP: Preparation of open tubular capillary: A 25 cm×100 u ID capillary was cleaned with 0.5 N NaOH running through for 40 minutes at low pressure followed by water for 20 minutes. Then placed in the oven at 95° C. for 30 minutes. Then APTS (90 parts water: 10 parts APTS) was run through the column for 5 minutes at high pressure and placed in the oven for 30 minutes. This was repeated and left overnight. The following morning, a 1% gluteraldehyde solution in PBS was then run through at high pressure for 30 minutes followed by air. Then avidin (10 mg in 4 mL 50 mM PBS) was run through for 3 minutes at high pressure. Then both tips were submerged in the avidin solution overnight at 4° C. It was determined at this stage that the column needs to be washed for 4-6 hours at 50 ul/min with Tris buffer prior to continuing to the next stage. The purpose being to remove any unbound avidin. A frontal study using a 5 mL sample of 0.5 nM ^3H-Vinblastin (RM062702002) was carried out to determine if vinblastin had specific binding to avidin.
Subsequently, a solution of 14 mM BioX (15 mg of BioX in 1 mL DMSO) was run through the column at high pressure for 10 minutes and left in the solution for 48 hours. A frontal study of 0.5 nM ^3H-Vinblastin (5 mL) was carried out on the BiotinX-Avidin labeled OT column to determine if any interactions between vinblastin and biotin could be seen. […]

`Clc1ccc(C2CC3CCC2N3)cn1` (stereo not shown) [Epibatidine]: the dissociation constant Kd on Nicotinic Receptor (rat brain membranes) was 0.05 nM.
`CN1CCCC1c1cccnc1` (stereo not shown) [Nicotine]: on Nicotinic Receptor, the Kd is 0.8 nM. For the same molecule, the “Effect on elution (breakthrough) volume of 60 pM (3H)-EB” value on NCT receptor was “reduction in the breakthrough volume”. Moreover, the “Effect on elution volume of 25 pM (3H)-FTZ” value in the data set with GABAA receptor [1] (ligand at 1 μM in mobile phase) is given as “no decrease in the elution volume”.
In the case of `CC[C@]1(O)C[C@@H]2CN(CCc3c([nH]c4ccccc34)[C@@](C(=O)OC)(c3cc4c(cc3OC)N(C)[C@H]3[C@@](O)(C(=O)OC)[C@H](OC(C)=O)[C@]5(CC)C=CCN6CC[C@]43[C@@H]65)C2)C1` [Vinblastin], the “Bmax (binding sites on the PGP-OTB column)” value on PGP (not told) was 3 mmol. Further, the equilibrium dissociation constant (Kd) at PGP (read-out: Kd for the PGP-OTB column, 0.5 nM 3H-Vinblastin marker, r2 0.902) amounted to 97 nM.
Regarding `CN[C@H](CC(=O)O)C(=O)O` [NMDA, N-methyl D-aspartate], the “Displacement of (3H)-MK-801” value with NMDA receptor (displacer 1 mM to 2 mM in chromatographic buffer) is recorded as “able to specifically displace”. At NMDA receptor (read-out: Kd Frontal, MR-SP, 2 nM (3H)-MK-801 marker, 1 μM L-glutamate and 1 μM glycine, two determinations (FIG. 2A, 2B)), the Kd is 1.2 nM and 0.6 nM.
Take `CN1C(=O)CN=C(c2ccccc2)c2cc(Cl)ccc21` [Diazepam]: the dissociation constant (Kd) was 1.3 nM at GABAA receptor [2] and 1 nM on GABAA receptor [1] (MR-SP from rat brain, 25 pM (3H)-FTZ marker, Tris-HCl 50 mM pH 7.4).
